Among the data in US11512268B2, “Storage-stable enzyme preparations, their production and use” (BASF SE, priority 2017, dated 2022) are protease activity and lipase activity values, retold here.

One experiment concerns the target T1, Savinase (Lederbergia lenta, UniProt P29600).
T1 construct: purchased Sigma-Aldrich
T1 sequence (P29600 1-269): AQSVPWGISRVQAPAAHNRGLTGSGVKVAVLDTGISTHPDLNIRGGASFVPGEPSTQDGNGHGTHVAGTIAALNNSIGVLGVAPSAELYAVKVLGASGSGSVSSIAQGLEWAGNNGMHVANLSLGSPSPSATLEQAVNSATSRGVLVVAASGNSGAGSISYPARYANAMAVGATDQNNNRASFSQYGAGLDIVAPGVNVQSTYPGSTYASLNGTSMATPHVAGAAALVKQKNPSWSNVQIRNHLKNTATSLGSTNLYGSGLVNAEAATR
Kind of experiment: storage stability of protease (Savinase activity, Suc-AAPF-pNA substrate) in liquid formulations at 37° C. Type of experiment: biochemical. Particulars: base formulation III., component (a) 2.5 wt %, Savinase 16.0 L 0.5 wt %, storage at 37° C. Here is the method:
(§1) The storage stability of Lipase and Protease in water was assessed at 37° C.
(§2) Base test formulations were manufactured by making base formulations I to VI by mixing the components according to Table 1.
(§3) The respective salt (component (a)) or comparative compound was added, if applicable, to the respective base formulation in amounts as indicated in Table 1.
(§4) The amount of enzyme as provided in Table 1 refers to active protein. Either lipase or protease was added, depending on which enzyme activity was measured.
(§5) Lipolase® 100 L (CAS-No. 9001-62-1, EC-No. 232-619-9) was purchased from Sigma-Aldrich. Savinase® 16.0 L (CAS-No. 9014-01-1, EC-No. 232-752-2) was purchased from Sigma-Aldrich.
Savinase activity at certain points in time as indicated in Table 3 was be determined by employing Succinyl-Ala-Ala-Pro-Phe-p-nitroanilide (Suc-AAPF-pNA, short AAPF) as substrate. pNA is cleaved from the substrate molecule by proteolytic cleavage, resulting in release of yellow color of free pNA which was determined by measuring OD405. Measurement were done at 20° C.
The proteolytic activity values provided in Table 3 were calculated referring to the 100% value determined in the reference formulation at the time 0.
(§6) The nomenclature of formulations is as follows: the Roman number before the full stop characterizes the base formulation, the Arabian number the type of salt (A.# inventive salt (component (a)); C-(A.#) comparative compound). Zero (“0”): no salt, but diethylene glycol.

The target of the next experiment is T2, Lipolase (Thermomyces lanuginosus, UniProt O59952).
T2 construct: purchased Sigma-Aldrich
T2 sequence (O59952 23-291): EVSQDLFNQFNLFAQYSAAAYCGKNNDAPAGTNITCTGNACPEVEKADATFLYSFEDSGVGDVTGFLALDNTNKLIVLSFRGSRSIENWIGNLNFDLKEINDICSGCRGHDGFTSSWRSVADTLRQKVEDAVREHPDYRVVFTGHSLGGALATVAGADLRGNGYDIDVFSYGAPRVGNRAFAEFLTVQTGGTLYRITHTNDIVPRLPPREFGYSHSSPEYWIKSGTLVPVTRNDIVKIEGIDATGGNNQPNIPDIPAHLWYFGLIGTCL
Kind of experiment: storage stability of lipase (Lipolase activity, pNitrophenol-valerate substrate) in liquid formulations at 37° C. Type of experiment: biochemical, Thermomyces lanuginosa. Particulars: component (a) 2.5 wt %, Lipolase 0.4 wt %, storage at 37° C. The protocol:
as §1, §2, §3, §4, §5
Lipolase activity at certain points in time as indicated in Table 2 was be determined by employing pNitrophenol-valerate (2.4 mM pNP-C5 in 100 mM Tris pH 8.0, 0.01% Triton X100) as a substrate. The absorption was measured at 20° C. every 30 seconds over 5 minutes at 405 nm. The slope (absorbance increase at 405 nm per minute) of the time dependent absorption-curve is directly proportional to the activity of the lipase.
The lipolytic activity values provided in Table 2 were calculated referring to the 100% value determined in the reference formulation at the time 0.
as §6

Turning to `CC(=O)OCC[N+](C)(C)C` [(A.12), Acetylcholine], the protease activity at Savinase (1 d) is given as 96%; at Savinase (3 d) it was 92%; at Savinase (6 d), 80%; on Savinase (10 d) it was 70%; on Savinase (15 d), 61%; at Savinase (20 d), 50%. In addition, the protease activity on Savinase (25 d) came to 39%; on Savinase (30 d) it was 31%; at Savinase (T0), 96%. In addition, the lipase activity at Lipolase (base formulation II., 1 d) is recorded as 98%; on Lipolase (base formulation II., 3 d) it was 96%; on Lipolase (base formulation II., 6 d), 95%; on Lipolase (base formulation II., 10 d), 88%; on Lipolase (base formulation II., 15 d), 86%; at Lipolase (base formulation II., 20 d), 80%. Further, the lipase activity is listed as 77% on Lipolase (base formulation II., 25 d); 76% at Lipolase (base formulation II., 30 d); 98% at Lipolase (base formulation III., 1 d); 97% at Lipolase (base formulation III., 3 d); 95% on Lipolase (base formulation III., 6 d); 91% at Lipolase (base formulation III., 10 d). Besides, the lipase activity is given as 86% at Lipolase (base formulation III., 15 d); 80% on Lipolase (base formulation III., 20 d); 78% on Lipolase (base formulation III., 25 d); 74% on Lipolase (base formulation III., 30 d).
On to `O=C([O-])CC(O)(CC(=O)O)C(=O)O.[Na+]` [C-(A.20), monosodium salt of citric acid], for which the lipase activity on Lipolase (base formulation III., 1 d) is on record as 92%; at Lipolase (base formulation III., 3 d), 79%; at Lipolase (base formulation III., 6 d), 70%; at Lipolase (base formulation III., 10 d) it was 51%; on Lipolase (base formulation III., 15 d) it was 39%; on Lipolase (base formulation III., 20 d) it was 30%. In addition, the lipase activity is 22% at Lipolase (base formulation III., 25 d); 16% at Lipolase (base formulation III., 30 d); 100% on Lipolase (base formulation III., T0).
With `O=C([O-])CC(O)(CC(=O)[O-])C(=O)O.[Na+].[Na+]` [C-(A.21), disodium salt of citric acid], the lipase activity on Lipolase (base formulation III., 1 d) turned out to be 93%; on Lipolase (base formulation III., 3 d) it was 78%; on Lipolase (base formulation III., 6 d), 68%; at Lipolase (base formulation III., 10 d), 50%; at Lipolase (base formulation III., 15 d) it was 39%; at Lipolase (base formulation III., 20 d), 31%. The lipase activity on Lipolase (base formulation III., 25 d) was determined as 25%; on Lipolase (base formulation III., 30 d), 20%; at Lipolase (base formulation III., T0) it was 101%.
Take `O=C([O-])CC(O)(CC(=O)[O-])C(=O)[O-].[Na+].[Na+].[Na+]` [C-(A.22), trisodium salt of citric acid]: the lipase activity is on record as 87% at Lipolase (base formulation II., 1 d); 79% at Lipolase (base formulation II., 3 d); 67% on Lipolase (base formulation II., 6 d); 55% at Lipolase (base formulation II., 10 d); 40% on Lipolase (base formulation II., 15 d); 33% on Lipolase (base formulation II., 20 d). Besides, the lipase activity was determined as 24% on Lipolase (base formulation II., 25 d); 18% at Lipolase (base formulation II., 30 d); 95% at Lipolase (base formulation II., T0); 92% on Lipolase (base formulation III., 1 d); 76% at Lipolase (base formulation III., 3 d); 66% on Lipolase (base formulation III., 6 d). Moreover, the lipase activity is on record as 48% on Lipolase (base formulation III., 10 d); 37% on Lipolase (base formulation III., 15 d); 28% at Lipolase (base formulation III., 20 d); 23% on Lipolase (base formulation III., 25 d); 19% on Lipolase (base formulation III., 30 d); 98% on Lipolase (base formulation III., T0).
